Measured values: PubChem BioAssay (NCI)
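Abbreviation: GI50, concentration required for 50% inhibition of growth. TGI marks complete inhibition of growth.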

How the values were obtained:
Assay in all cases: growth of human tumour cells (NCI), 384-well format
NCI-H226 lung = test system: NCI-H226 lung
NCI-H23 lung = test system: NCI-H23 lung
NCI-H322M lung = test system: NCI-H322M lung
NCI-H460 NSCLC = test system: NCI-H460 NSCLC
NCI-H522 lung = test system: NCI-H522 lung
NCI/ADR-RES ovarian = test system: NCI/ADR-RES ovarian
OVCAR-3 ovarian = test system: OVCAR-3 ovarian
OVCAR-4 ovarian = test system: OVCAR-4 ovarian
OVCAR-8 ovarian = test system: OVCAR-8 ovarian
PC-3 prostate = test system: PC-3 prostate
RPMI-8226 leukemia = test system: RPMI-8226 leukemia
RXF 393 renal = test system: RXF 393 renal
SF-268 CNS = test system: SF-268 CNS
SF-539 CNS = test system: SF-539 CNS
SK-MEL-28 melanoma = test system: SK-MEL-28 melanoma
SK-MEL-5 melanoma = test system: SK-MEL-5 melanoma
SK-OV-3 ovarian = test system: SK-OV-3 ovarian
SN12C renal = test system: SN12C renal
SNB-19 CNS = test system: SNB-19 CNS
SNB-75 CNS = test system: SNB-75 CNS
SR leukemia = test system: SR leukemia
SW-620 colon = test system: SW-620 colon
T-47D breast = test system: T-47D breast
TK-10 renal = test system: TK-10 renal
U251 glioblastoma = test system: U251 glioblastoma
UACC-257 melanoma = test system: UACC-257 melanoma
UACC-62 melanoma = test system: UACC-62 melanoma
UO-31 renal = test system: UO-31 renal

Compound: COc1cc(OC)cc(N2CCN(C(=O)Nc3nc4cc(F)ccc4nc3OC)CC2)c1
- GI50 (NCI-H226 lung): 18.6 nM
- TGI (NCI-H226 lung): 70.8 nM
- GI50 (NCI-H23 lung): 20.7 nM
- TGI (NCI-H23 lung): 55.4 nM
- GI50 (NCI-H322M lung): 64 nM
- TGI (NCI-H322M lung): 37600 nM
- GI50 (NCI-H460 NSCLC): 21.1 nM
- TGI (NCI-H460 NSCLC): 48.7 nM
- GI50 (NCI-H522 lung): < 10 nM
- TGI (NCI-H522 lung): 22 nM
- GI50 (NCI/ADR-RES ovarian): 14 nM
- TGI (NCI/ADR-RES ovarian): 32.1 nM
- GI50 (OVCAR-3 ovarian): 12.1 nM
- TGI (OVCAR-3 ovarian): 31.4 nM
- GI50 (OVCAR-4 ovarian): 314 nM
- TGI (OVCAR-4 ovarian): 31700 nM
- GI50 (OVCAR-8 ovarian): 27.6 nM
- TGI (OVCAR-8 ovarian): 91.2 nM
- GI50 (PC-3 prostate): 25.4 nM
- TGI (PC-3 prostate): 15200 nM
- GI50 (RPMI-8226 leukemia): 17 nM
- TGI (RPMI-8226 leukemia): 31.8 nM
- GI50 (RXF 393 renal): < 10 nM
- TGI (RXF 393 renal): 21.9 nM
- GI50 (SF-268 CNS): 30.4 nM
- TGI (SF-268 CNS): 415 nM
- GI50 (SF-539 CNS): 18.2 nM
- TGI (SF-539 CNS): 49.5 nM
- GI50 (SK-MEL-28 melanoma): 120 nM
- TGI (SK-MEL-28 melanoma): 22300 nM
- GI50 (SK-MEL-5 melanoma): 13.1 nM
- TGI (SK-MEL-5 melanoma): 45.3 nM
- GI50 (SK-OV-3 ovarian): 35.1 nM
- TGI (SK-OV-3 ovarian): 11700 nM
- GI50 (SN12C renal): 28 nM
- TGI (SN12C renal): 16200 nM
- GI50 (SNB-19 CNS): 36.3 nM
- TGI (SNB-19 CNS): 12800 nM
- GI50 (SNB-75 CNS): 23.4 nM
- TGI (SNB-75 CNS): 127 nM
- GI50 (SR leukemia): < 10 nM
- GI50 (SW-620 colon): 36.5 nM
- TGI (SW-620 colon): 18800 nM
- GI50 (T-47D breast): 55.4 nM
- TGI (T-47D breast): 19600 nM
- GI50 (TK-10 renal): 57.1 nM
- TGI (TK-10 renal): 23100 nM
- GI50 (U251 glioblastoma): 32.7 nM
- TGI (U251 glioblastoma): 12100 nM
- GI50 (UACC-257 melanoma): 37.2 nM
- TGI (UACC-257 melanoma): 20100 nM
- GI50 (UACC-62 melanoma): < 10 nM
- TGI (UACC-62 melanoma): 15000 nM
- GI50 (UO-31 renal): 51.3 nM
- TGI (UO-31 renal): 18300 nM
